Laboratory results: US6919441B2, “Polyamide-oligonucleotide derivatives, their preparation and use” (Aventis Pharma Deutschland GmbH, priority 1995, dated 2005)
In the oligonucleotide strings, read from the 5' end, every base follows the letter of its sugar. An asterisk marks phosphorothioate; unmarked linkages are phosphodiester. Other units and linkages are bracketed, terminal groups are in braces. A string of capitals states the bases alone. d = 2'-deoxy (DNA)

Key:
complementary DNA = test: Melting temperature (TM) with complementary DNA; type: binding; conditions: 10 mM HEPES, 140 mM NaCl, pH 7.5
Protocol: (§1) The melting temperatures are determined using an HP 8452A diode array spectrophotometer, an HP 89090A Peltier element and the HP temperature control software Rev.B5.1 (from Hewlett Packard). Measurements are carried out in 0.5° C./min steps in 10 mM HEPES and 140 mM NaCl (pH 7.5) as buffer. The oligomer concentration is 0.5 to 1 OD260 per ml.

[1] = system: complementary RNA (T = U); test: Melting temperature (TM) with complementary RNA; type: binding; conditions: ap; 3′-TGT AGT ACC AGC-5′ (T = U); 10 mM HEPES, 140 mM NaCl, pH 7.5
Protocol: as §1

[2] = system: Ha-ras protein expression; test: Anti-Ha-ras activity, Western blot in RS485 cells; type: cell-based
Protocol: RS485 cells (40-60% confluency) were either treated with the PNS_DNA chimera alone or transfected with PNA-DNA chimera using Lipofectin™ Reagent and the protocol from Life Technologies. Briefly, varying concentrations of oligomers were diluted in 100 μl of serum-free medium. In a separate tube Lipofectin was added to serum-free medium at a concentration of 7 μl/100 μl. After 30 minutes at room temperature, 100 μl of Lipofectin solution was mixed with 100 μl of ODN solution, incubated for an additional 15 minutes at room temperature, and mixed with 800 μl of serum-free medium. Cells were washed two times with serum-free medium, and the total solution (1 ml) containing the ODN-Lipofectin complex was overlayed onto the cells. After 6 hours, 1 ml of fresh medium containing 8 mM L-glutamine and 20% calf serum was added, and the cells were incubated for an additional 38 hours. Treated cells were washed with PBS, harvested with trypsin, and cellular proteins were extracted. The ras Protein was then determined by Western Blot Analysis. Total cellular protein was prepared by lysing cells in RIPA buffer with freshly added inhibitors (PMSF, aprotinin, sodium orthovanadate) and homogenizing through 21-gauge needles according to the protocol provided by Santa Cruz Biotechnology, Inc. The extracts were cleaned by centrifugation at 15,000 xg for 20 min at 4° C. and the protein concentration of the supernatant was determined. 40 μg of protein was size fractionated in 5-12.5% PAGE and electroblotted onto a nitrocellulose membrane. The membrane was incubated with primary antibody against Ha-Ras (C-20) (Santa Cruz Biotechnology, Inc.) and then with Horseradish Peroxidase-conjugated goat anti-rabbit immunoglobulin G. The ECL chemo-luminescent Western system (Amersham, Arlington Heights, Ill.) was used to detect secondary probes.

[3] = system: VEGF (vascular endothelial growth factor); test: Inhibition of VEGF expression (ELISA of culture supernatants); type: cell-based, human
Protocol: Cell Culture: Normal human epidermal keratinocytes (NHEK cells) were grown in KGM growth medium (Clonetics).
Both human estrogen responsive breast tumor (MCF-7) cells and human estrogen-independent breast tumor (MDA-MB-231) cells were grown in IMEM (Biofluids) supplemented with 10% FBS (Gibco-BRL) and 1:100 antibiotic-antimycotic (Gibco-BRL).
Cellular assays: NHEK cells were seeded at a density of ˜50,000 cells per well in 48-well plates in 0.5 ml of KGM growth medium (Clonetics) and incubated in humidified incubators at 37° C. The following day, the growth medium was replaced with fresh medium containing the PNA-DNA chimera alone or as mixture with Cellfectin, a cationic lipid uptake enhancer for nucleic acids (Life Technologies). Incubation of cells with the oligomer formulation was followed by a wash after 4 hours and cells were returned to fresh unsupplemented medium. Sixteen and/or 40 hr post-stimulation the culture supernatants were removed and used for ELISA, or saved at −80° C. for future analysis. To assay MCF-7 or MDA-MB-231 cells. MCF-7/MDA-MB-231 cells were seeded at a density of ˜100,000 cells per well plates in 0.5 ml of IMEM and incubated under standard conditions. […] VEGF protein levels in the supernatant were determined using a commercially available ELISA kit (R&D Systems).

[4] = system: DNA double strand (homopurine motif); test: Binding as triplex-forming oligonucleotide to double-stranded DNA
[5] = Stability of the oligomer in medium containing cells; type: in vitro ADME
Protocol: Vero cells are incubated in DMEM, 5% FCS, in 96-well microtiter plates at 37° C. for 24 hours. After removal of the medium, the cells are washed twice with serum-free DMEM. The radioactively labeled oligomer (10^6 cpm) is diluted with unlabeled oligomer to a concentration of 10 μM in serum, and the cells are incubated at 37° C. therewith. 150 μl portions are removed after 1, 7 and 24 hours (called “supernatant 1”). The cells in the wells of the microtiter plates are washed 7 times with 300 μl of fresh medium, and the combined washing media (called “supernatant 2”) are measured in a scintillation counter. Then 100 μl of trypsin solution are added, 30 seconds are allowed to elapse, and the supernatant is aspirated off. The cells are detached from the plate by incubating at 37° C. for 3 min. The detached cells are transferred into 1.5 ml Eppendorf tubes and centrifuged at 2,000 rpm for 6 minutes (“supernatant 3”). Supernatants 1 (5 μl), 2 and […] (0.5 ml) are each measured separately in a scintillation counter. From this is calculated the uptake of oligomer in pmol per 100,000 cells, with supernatant 3 representing the cell-bound oligomer fraction and the total of supernatants 1 and 2 representing the non-cell-bound oligomer fraction.
Supernatant 1 (10 μl) is mixed with 5 μl of 80% formamide (with Xylenecyanol and bromphenolblue), heated to 95° C. […]

[6] = target: DNA polymerase (Klenow fragment) (Escherichia coli, UniProt P00582); test: DNA polymerase reaction (primer function); type: biochemical; conditions: 22° C. and 37° C., 10% polyacrylamide gel
Excerpt: The following 81-mer oligodeoxynucleotide is used as template for the DNA polymerase reaction: • 5′-GCCCCAGGGAGAAGGCAACTGGACCGAAGGCGCTTGTGGAGAAGGAGTTCATAGCTGGGCTCCCTATAGTGAGTCGTATTA-3′(SEQ ID NO:50)
The sequence of the PNA/DNA primer is: • H-taa tac gac tca cta (5NH-T)-OH 3′(SEQ ID NO:62).
A corresponding oligodeoxynucleotide of the sequence 5′-TAA TAC GAC TCA CTA TAG-3′ (SEQ ID NO:51) is used as control primer.
The primer (0.15 nmol) and the template (0.15 nmol) in 5 μl of 10×PCR buffer ([…], 100 mM tris-HCl, pH 9, 1% Triton X-100, 15 MM MgCl2) are diluted with 35 μl of water and hybridized by heating to 95° C. and cooling. Then 10 μl of 2 mM dNTP mixture (nucleoside 5′-triphosphates) and 3 μl of DNA polymerase (Klenow fragment) are added, and the mixture is incubated at 22° C. and 37° C. for 0.5 hour each. The reaction solution is then analyzed on a 10% polyacrylamide gel (with 1% bis). pBR322/HaeIII digestion is loaded as marker. […] In both cases the double strand migrates […] than the template single strand in the gel electrophoresis.

c-Fos protein expression = test: Inhibition of c-Fos protein expression in the rat (spinal cord superfusion); type: in vivo, Sprague-Dawley rat; conditions: 75 μM, 6 hours, heat stimulation
Excerpt: The determination takes place as described (Sandkühler et al. (1991) in: Proceedings of the VIth World Congress on Pain, Charlton and Woolf, Editors; Elsevier, Amsterdam; pages 313-318) by superfusion of the spinal cord. After laminectomy of a barbiturate-anesthetized Sprague-Dawley rat, a two-chamber container is formed from silicone to receive the antisense oligomer. One chamber is filled with the antisense PNA/DNA derivative, while the other chamber is filled with the control oligomer (concentration of each 75 μM). The superfusate is exchanged in each case after one hour. After superfusion for 6 hours, c-fos expression is stimulated by heat treatment (52° C.) of the rear legs.

COS cells = test: Cellular uptake by fluorescence labeling (fluorescence microscopy); type: cell-based; conditions: 0.1 mM oligomer
Protocol: COS cells are allowed to grow to confluence in Dulbecco's MEM supplemented with 10% FCS in 5 cm Petri dishes. The cells are washed twice with serum-free DMEM. A sterile needle is used to scratch an area of about 1 cm^2 in the middle of the Petri dish. The PNA/DNA oligomer solution (0.1 mM) to be investigated is applied to this area. Incubation is carried out at 37° C. under a CO2 atmosphere. The cells are investigated by fluorescence microscopy after 2, 4 and 16 hours. For this, the cells are washed four times with serum-free DMEM, covered with a glass slide and assessed under a fluorescence microscope or by phase contrast. A fluorescence-labeled PNA (without DNA part) F-(but)-tttt ttt-hex was investigated as comparison for the PNA/DNA hybrid molecules. After the cells had been incubated with this PNA for two hours, >90% of the cells show signs of pronounced morphological changes and cell death. […] The plasma membrane, the cytosol and the nucleus show no uptake of PNA. […] The situation is different with the DNA/PNA oligomers according to the invention. After incubation of the cells with the DNA/PNA oligomers for only two hours the cells show punctiform intracellular distribution of the PNA/DNA oligomers. The cells suffer no cell death even after prolonged incubation.

[7] = target: RNase L (cellular endoribonuclease L) (Homo sapiens, UniProt Q05823); conditions: HeLa cell extract, 37° C.
Protocol: An HeLa cell extract was prepared in order to stimulate the activity of cellular endoribonuclease L by the 2′,5′-tetraadenylate-PNA/DNA conjugates.
For investigation of this extract for endonuclease L, initially 0.3 OD of the RNA target sequence is heated with the particular PNA/DNA oligomers at 80° C. for 5 minutes and subsequently cooled to 37° C. for the hybridization. The duplex is mixed with 20 μl of the extract, 1.2 μl of glycerol and RNase L buffer and incubated at 37° C. The total volume is then 70 μl. For the kinetic investigations, samples are removed by pipette at the times of 0, 20 and 60 minutes and heated at 95° C. for 5 minutes to denature the enzymes. The samples are lyophilized in a Speedvac and analyzed by gel electrophoresis.

[8] = antiparallel, 3′-TAG CAG CAT AAT CAG-5′
[9] = parallel, 5′-TAG CAG CAT AAT CAG-3′

Sequence of DNA polymerase (Klenow fragment) (P00582 324-928): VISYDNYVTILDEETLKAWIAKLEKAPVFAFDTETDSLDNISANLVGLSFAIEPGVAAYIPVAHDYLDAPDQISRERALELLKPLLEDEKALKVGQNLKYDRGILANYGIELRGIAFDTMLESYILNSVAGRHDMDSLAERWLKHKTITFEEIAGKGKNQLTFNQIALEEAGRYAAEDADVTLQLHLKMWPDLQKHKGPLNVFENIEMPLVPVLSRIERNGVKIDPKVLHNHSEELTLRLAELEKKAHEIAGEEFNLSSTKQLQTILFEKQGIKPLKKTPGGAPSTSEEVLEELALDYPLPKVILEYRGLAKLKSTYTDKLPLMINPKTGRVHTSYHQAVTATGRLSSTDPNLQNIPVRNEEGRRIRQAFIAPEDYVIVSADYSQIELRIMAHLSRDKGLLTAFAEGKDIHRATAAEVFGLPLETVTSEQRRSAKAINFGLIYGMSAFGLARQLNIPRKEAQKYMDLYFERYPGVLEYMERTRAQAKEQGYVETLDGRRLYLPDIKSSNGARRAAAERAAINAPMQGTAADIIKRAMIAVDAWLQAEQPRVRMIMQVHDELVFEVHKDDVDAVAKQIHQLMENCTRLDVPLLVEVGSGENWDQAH
Sequence of RNase L (cellular endoribonuclease L) (Q05823 whole entry): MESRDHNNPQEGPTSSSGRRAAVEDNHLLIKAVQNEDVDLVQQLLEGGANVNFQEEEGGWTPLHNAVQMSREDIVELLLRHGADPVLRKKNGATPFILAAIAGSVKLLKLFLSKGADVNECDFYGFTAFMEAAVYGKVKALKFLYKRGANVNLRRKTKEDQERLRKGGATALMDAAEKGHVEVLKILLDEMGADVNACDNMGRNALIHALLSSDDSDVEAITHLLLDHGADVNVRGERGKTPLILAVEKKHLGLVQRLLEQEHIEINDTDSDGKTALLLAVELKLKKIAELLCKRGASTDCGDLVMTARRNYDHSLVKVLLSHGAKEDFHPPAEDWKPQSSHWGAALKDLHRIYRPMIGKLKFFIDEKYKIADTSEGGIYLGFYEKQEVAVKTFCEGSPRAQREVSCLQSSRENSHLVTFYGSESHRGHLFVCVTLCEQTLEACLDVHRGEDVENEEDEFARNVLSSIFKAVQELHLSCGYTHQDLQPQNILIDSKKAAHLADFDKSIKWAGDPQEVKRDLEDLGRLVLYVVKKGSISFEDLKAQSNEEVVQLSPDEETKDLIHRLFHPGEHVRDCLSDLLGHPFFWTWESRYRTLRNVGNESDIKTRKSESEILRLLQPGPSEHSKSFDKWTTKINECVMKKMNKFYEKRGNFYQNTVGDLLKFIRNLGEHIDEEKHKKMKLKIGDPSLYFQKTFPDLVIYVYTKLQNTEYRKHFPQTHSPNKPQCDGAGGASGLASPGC

Question: For “5′-ACA TCA TGG TCG-3′ [5′-ACA TCA TGG TCG-3′ DNA] (ACATCATGGTCG; unmodified DNA) [natural DNA oligonucleotide, reference compound]”, which “TM with DNA” value (complementary DNA; ap, 3′-TGT AGT ACC AGC-5′) is on record?
Answer: 50.7° ° C.

Question: And the “TM with RNA (T = U)” value [1]?
Answer: 48.6° ° C.

Question: What does the source list for “5′-ACA TCA TGG TCG-3′ [5′-ACA TCA TGG TCG-3′ S-DNA] (dA*dC*dA*dT*dC*dA*dT*dG*dG*dT*dC*dG) [reference compound]”?
Answer: TM with DNA (complementary DNA; ap, 3′-TGT AGT ACC AGC-5′): 46.7° ° C.; TM with RNA (T = U) [1]: 43.8° ° C.

Question: With “5′-ASTSGS-(Oeg(a))-cgg aata-hex [Example 53]” as the substance, how does the “inhibition of ha-ras expression (control oligonucleotides)” value [2] read?
Answer: did not inhibit

Question: With “5′-ATC GTC GTA TT-(Oeg(t))-agtc-hex [Example 18]” as the substance, how does the “TM with DNA” value (complementary DNA; [8]) read?
Answer: TM = 51.5 °C

Question: And the “TM with DNA” value (complementary DNA; [9])?
Answer: TM < 20 °C

Question: For “5′-ATC GTC GTA TT-(but)-agtc-hex [Example 17]”, which “TM with DNA” value (complementary DNA; [8]) is on record?
Answer: TM = 51.0 °C

Question: What about the “TM with DNA” value (complementary DNA; [9]) of the same substance?
Answer: TM < 20 °C

Question: Which “TM with DNA” value (complementary DNA; [8]) does the source give for “5′-ATC GTC GTA TTA GTC-3′ (ATCGTCGTATTAGTC; DNA, backbone not given here) [natural DNA oligonucleotide (DNA · DNA duplex), reference compound]” here?
Answer: TM = 50.5 °C

Question: Which “inhibition of ha-ras expression (control oligonucleotides)” value [2] does the source give for “5′-ATG-(Oeg(a))-cgg aata-hex [Example 52]” here?
Answer: did not inhibit

Question: Which results are given for “5′-CSUSGAUSAG-(Oeg(a))-catccatg-hex [Example 54]”?
Answer: highest inhibition of VEGF expression ([3]; 1 μM, presence of Cellfectin (10 μg/ml)): 43%; inhibition of VEGF expression ([3]; 0.1 to 0.4 μM, absence of Cellfectin): 10-18%

Question: With “5′-GG GGG GGG (Oeg(t)) ttt ttt ttt-hex [Example 39]” as the substance, how does the “binding as triplex-forming oligonucleotide to DNA double strand” value [4] read?
Answer: high affinity

Question: With “5′-GGG GGG GGG (but) ttt ttt-hex [Example 28]” as the substance, how does the “binding as triplex-forming oligonucleotide to DNA double strand” value [4] read?
Answer: high affinity

Question: For “5′-TSASTS-(Oeg(t))-ccgtcat-hex [Example 51]”, which “inhibition of ha-ras protein expression” value ([2]; 1 μM, in the presence of lipofectin) is on record?
Answer: almost complete inhibition

Question: With “5′-TTT TTT TTT (but) ttt ttt-hex [Example 26]” as the substance, how does the stable oligomer ([5]; after an incubation time of 24 hours in medium containing cells) read?
Answer: 69%

Question: Which “DNA polymerase reaction product with primer on 81-mer template (gel)” value [6] does the source give for “(5′)-(Acetyl)-taa tac gac tca cta (eae(t) A-3′ [Example 65]” here?
Answer: dNTP are polymerized

Question: For “A CAT CA (Oeg(t)) ggt cg-hex [Example 31]”, which half-life ([5]; medium containing cells) is on record?
Answer: 32 h

Question: What about the “inhibition of c-fos expression compared with corresponding DNA oligonucleotide and PNA oligomer” value (c-Fos protein expression) of the same substance?
Answer: greater inhibition

Question: Which “cell death on further/prolonged incubation” value (COS cells; a further two hours or prolonged incubation) does the source give for F-(but)-tttt ttt-hex here?
Answer: all the cells have died

Question: And the “cells showing pronounced morphological changes and cell death” value (COS cells; incubated two hours)?
Answer: > 90%

Question: And the “intracellular uptake (fluorescence microscopy)” value (COS cells; two hours)?
Answer: no uptake

Question: With “PS-rA(2′5′)rA(2′5′)rA(2′5′)rA-spacer-(Oeg(t)tc ctc ctg cgg-hex [Example 37]” as the substance, how does the “stimulation of RNase L” value [7] read?
Answer: stimulates RNase L

Question: For “taa tac gac tca cta (5′HN-T) (TAATACGACTCACTA; listed as DNA, chemistry not fully specified) [Example 36, 15 PNA units and one nucleoside unit, primer for DNA polymerase]”, which “DNA polymerase reaction product with primer on 81-mer template (gel)” value [6] is on record?
Answer: migrates somewhat more quickly
